Publication PMC9512014 (Journal of Medicinal Chemistry, 2022)
Values belong to the molecule of their own block, whether it stands above or below them.

Columns and labels:
HDAC4 [1] = target: T1, HDAC4 (Homo sapiens, UniProt P56524); format: cell-based; conditions: Jurkat E6-1, 6 h; compound 7 at 1 μM, compound 11 at 100 nM
Target sequence in this assay (P56524 whole entry): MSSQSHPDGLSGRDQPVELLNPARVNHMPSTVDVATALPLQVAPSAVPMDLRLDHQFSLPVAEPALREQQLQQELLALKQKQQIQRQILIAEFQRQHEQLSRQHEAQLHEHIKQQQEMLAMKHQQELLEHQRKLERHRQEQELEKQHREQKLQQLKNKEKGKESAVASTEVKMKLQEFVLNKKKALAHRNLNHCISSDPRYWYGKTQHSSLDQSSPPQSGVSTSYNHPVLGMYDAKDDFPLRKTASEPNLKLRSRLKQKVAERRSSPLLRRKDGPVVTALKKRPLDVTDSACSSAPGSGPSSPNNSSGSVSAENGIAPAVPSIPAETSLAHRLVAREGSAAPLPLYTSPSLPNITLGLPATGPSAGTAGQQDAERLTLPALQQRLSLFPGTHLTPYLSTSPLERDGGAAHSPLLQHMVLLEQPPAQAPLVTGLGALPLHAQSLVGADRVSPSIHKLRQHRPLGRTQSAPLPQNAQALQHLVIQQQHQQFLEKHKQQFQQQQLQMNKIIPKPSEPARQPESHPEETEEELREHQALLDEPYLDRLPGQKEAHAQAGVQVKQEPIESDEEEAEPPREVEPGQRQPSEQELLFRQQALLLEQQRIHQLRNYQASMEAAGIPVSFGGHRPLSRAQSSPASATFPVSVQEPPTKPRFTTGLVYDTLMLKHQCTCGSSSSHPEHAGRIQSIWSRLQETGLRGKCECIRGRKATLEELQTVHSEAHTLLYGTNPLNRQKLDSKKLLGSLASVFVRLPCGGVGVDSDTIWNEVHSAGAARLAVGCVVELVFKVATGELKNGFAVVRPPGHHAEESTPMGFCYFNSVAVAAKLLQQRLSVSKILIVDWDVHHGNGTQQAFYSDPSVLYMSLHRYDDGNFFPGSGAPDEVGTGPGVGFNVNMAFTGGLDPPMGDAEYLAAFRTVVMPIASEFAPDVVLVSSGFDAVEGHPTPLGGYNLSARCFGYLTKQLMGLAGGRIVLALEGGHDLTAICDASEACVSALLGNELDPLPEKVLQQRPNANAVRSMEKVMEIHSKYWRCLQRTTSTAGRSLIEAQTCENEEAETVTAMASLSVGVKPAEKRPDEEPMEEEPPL

HDAC4 [2] = target: T1, HDAC4; assay: HDAC4 degradation by western blot in Jurkat E6-1 cells; format: cell-based; conditions: Jurkat E6-1, 24 h; for hook effect: immunoblot, at 10 μM
Target sequence in this assay (P56524 whole entry): as above

class I HDAC = conditions: read-out: HDAC cellular IC50 class I; Jurkat E6.1, treated for 24 h; substrate Boc-Lys(Ac)AMC
HDAC4 [3] = target: T1, HDAC4; assay: Recombinant HDAC4 enzymatic inhibition assay; conditions: HDAC enzymatic activity assays
Target sequence in this assay (P56524 655-1084 limits assumed): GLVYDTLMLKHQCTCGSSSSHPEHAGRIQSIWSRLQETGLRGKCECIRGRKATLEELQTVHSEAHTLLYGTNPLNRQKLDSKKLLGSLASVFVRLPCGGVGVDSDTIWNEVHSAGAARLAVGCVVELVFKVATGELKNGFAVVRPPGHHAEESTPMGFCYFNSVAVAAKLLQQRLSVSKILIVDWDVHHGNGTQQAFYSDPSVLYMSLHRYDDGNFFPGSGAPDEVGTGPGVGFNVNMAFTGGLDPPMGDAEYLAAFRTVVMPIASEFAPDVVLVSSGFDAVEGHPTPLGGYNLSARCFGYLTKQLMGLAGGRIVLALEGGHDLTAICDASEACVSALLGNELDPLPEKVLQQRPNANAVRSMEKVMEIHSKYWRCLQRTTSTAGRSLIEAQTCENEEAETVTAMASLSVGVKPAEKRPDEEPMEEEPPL

HDAC3 = HDAC3 (Homo sapiens, UniProt O15379); assay: Multiplexed selectivity western blot in Jurkat cells, HDAC3; format: cell-based; conditions: Jurkat E6-1, 24 h, concentration response up to 10 μM
HDAC1 = HDAC1 (Homo sapiens, UniProt Q13547); assay: Multiplexed selectivity western blot in Jurkat cells, HDAC1; format: cell-based; conditions: Jurkat E6-1, 24 h, concentration response
HDAC9 = HDAC9 (Homo sapiens, UniProt Q9UKV0); assay: Multiplexed selectivity western blot in Jurkat cells, HDAC9; format: cell-based; conditions: Jurkat E6-1, 24 h, concentration response
HDAC7 = target: T2, HDAC7 (Homo sapiens, UniProt Q8WUI4); assay: Multiplexed selectivity western blot in Jurkat cells, HDAC7; format: cell-based; conditions: Jurkat E6-1, 24 h, concentration response
T2 sequence (Q8WUI4 1-952): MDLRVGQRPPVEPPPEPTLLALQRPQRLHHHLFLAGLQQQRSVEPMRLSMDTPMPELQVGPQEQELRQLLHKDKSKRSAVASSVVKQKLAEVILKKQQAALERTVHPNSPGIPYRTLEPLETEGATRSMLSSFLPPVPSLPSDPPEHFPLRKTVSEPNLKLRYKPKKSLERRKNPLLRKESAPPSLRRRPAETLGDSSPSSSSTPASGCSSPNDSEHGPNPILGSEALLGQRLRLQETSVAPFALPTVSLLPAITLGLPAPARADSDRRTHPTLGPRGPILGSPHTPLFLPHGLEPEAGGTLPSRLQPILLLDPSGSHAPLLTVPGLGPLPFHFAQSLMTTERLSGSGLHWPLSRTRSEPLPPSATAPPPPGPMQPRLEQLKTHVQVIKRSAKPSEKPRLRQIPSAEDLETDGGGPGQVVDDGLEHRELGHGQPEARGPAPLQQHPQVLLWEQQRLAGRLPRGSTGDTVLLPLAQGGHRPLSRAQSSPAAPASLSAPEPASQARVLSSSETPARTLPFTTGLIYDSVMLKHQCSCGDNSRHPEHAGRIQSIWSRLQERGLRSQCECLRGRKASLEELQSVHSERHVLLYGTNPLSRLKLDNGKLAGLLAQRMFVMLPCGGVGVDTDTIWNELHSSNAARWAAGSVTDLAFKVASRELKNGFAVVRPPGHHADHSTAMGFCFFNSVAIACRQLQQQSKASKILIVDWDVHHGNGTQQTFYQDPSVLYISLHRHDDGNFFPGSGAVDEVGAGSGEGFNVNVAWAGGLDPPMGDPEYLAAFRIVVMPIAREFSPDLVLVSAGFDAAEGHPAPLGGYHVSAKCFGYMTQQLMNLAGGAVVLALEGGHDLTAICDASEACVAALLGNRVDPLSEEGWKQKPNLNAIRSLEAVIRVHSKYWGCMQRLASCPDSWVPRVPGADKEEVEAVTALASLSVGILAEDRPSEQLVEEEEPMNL

HDAC5 = HDAC5 (Homo sapiens, UniProt Q9UQL6); assay: Multiplexed selectivity western blot in Jurkat cells, HDAC5; format: cell-based; conditions: Jurkat E6-1, 24 h, concentration response
HDAC4 [4] = target: HDAC4 (Mus musculus, UniProt Q6NZM9); conditions: R6/2 mice, chronic administration; cited from earlier work
aggregate load = conditions: R6/2 mice, chronic administration, cortex and brain stem; cited from earlier work

HDAC5, sequence (Q9UQL6 whole entry): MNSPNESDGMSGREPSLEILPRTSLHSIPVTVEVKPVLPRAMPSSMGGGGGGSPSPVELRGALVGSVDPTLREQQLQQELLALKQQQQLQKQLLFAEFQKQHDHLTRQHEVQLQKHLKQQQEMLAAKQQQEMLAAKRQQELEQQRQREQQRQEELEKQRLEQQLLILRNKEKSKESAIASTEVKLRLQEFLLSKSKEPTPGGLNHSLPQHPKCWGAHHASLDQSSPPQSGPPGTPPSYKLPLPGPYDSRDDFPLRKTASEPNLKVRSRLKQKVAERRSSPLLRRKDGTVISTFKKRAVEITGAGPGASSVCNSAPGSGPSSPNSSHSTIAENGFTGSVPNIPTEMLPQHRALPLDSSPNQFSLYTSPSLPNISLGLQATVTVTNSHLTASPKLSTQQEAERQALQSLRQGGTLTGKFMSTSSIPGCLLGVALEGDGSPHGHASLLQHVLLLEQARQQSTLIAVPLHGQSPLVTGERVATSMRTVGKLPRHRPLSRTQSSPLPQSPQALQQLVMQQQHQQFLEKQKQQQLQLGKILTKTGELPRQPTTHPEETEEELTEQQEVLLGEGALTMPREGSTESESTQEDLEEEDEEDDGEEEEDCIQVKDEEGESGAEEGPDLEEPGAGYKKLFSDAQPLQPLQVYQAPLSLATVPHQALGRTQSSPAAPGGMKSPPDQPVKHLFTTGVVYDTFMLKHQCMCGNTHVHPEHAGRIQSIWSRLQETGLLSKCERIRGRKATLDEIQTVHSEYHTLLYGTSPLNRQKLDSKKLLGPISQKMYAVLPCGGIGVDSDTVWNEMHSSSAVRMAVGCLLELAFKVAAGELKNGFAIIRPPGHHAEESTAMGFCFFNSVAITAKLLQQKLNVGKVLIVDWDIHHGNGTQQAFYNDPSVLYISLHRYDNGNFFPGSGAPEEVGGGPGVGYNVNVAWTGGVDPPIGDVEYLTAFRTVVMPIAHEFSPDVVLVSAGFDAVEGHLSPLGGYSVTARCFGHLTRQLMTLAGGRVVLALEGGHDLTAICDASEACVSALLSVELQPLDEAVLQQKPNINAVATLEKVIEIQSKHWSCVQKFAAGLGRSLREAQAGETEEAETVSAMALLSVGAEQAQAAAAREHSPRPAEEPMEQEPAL
HDAC1, sequence (Q13547 whole entry): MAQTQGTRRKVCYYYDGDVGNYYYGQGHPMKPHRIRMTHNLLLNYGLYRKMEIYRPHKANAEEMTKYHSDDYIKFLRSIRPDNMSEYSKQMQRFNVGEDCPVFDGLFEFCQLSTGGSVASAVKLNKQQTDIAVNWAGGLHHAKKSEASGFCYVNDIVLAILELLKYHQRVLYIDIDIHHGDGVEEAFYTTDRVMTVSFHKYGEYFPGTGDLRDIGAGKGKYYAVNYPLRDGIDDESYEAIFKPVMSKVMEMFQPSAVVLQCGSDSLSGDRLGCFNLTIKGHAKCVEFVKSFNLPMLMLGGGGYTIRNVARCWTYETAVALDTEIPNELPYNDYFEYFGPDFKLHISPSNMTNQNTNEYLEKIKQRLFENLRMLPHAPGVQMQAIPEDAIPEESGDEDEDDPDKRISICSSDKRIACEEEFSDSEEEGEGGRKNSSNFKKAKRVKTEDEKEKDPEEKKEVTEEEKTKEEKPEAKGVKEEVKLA
HDAC9, sequence (Q9UKV0 whole entry): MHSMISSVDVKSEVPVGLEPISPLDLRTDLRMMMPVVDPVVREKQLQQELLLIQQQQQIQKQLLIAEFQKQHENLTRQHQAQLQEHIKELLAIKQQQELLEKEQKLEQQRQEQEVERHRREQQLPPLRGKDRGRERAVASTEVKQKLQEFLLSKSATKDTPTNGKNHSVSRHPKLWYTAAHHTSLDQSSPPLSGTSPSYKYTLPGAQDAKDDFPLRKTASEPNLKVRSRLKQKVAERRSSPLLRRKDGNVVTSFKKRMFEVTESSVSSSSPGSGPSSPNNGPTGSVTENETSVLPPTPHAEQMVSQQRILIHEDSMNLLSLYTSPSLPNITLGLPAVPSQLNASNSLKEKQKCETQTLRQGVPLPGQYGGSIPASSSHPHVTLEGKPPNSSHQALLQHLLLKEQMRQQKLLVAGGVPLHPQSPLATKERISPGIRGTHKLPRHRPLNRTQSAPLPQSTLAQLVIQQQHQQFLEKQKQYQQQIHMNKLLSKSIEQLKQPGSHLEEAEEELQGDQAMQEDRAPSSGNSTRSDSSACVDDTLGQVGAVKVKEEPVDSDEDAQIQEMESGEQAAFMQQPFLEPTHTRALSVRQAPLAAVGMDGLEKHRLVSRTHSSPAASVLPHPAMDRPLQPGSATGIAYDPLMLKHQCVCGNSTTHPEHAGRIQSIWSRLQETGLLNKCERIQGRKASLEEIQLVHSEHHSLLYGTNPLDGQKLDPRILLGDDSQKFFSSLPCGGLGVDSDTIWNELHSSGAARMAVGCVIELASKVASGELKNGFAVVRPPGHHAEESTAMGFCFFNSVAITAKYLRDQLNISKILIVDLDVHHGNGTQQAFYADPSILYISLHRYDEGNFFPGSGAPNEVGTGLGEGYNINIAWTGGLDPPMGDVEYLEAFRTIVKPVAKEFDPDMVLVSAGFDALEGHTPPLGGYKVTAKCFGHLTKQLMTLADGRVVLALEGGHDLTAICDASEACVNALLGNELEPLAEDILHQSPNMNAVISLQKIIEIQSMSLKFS
HDAC3, sequence (O15379 whole entry): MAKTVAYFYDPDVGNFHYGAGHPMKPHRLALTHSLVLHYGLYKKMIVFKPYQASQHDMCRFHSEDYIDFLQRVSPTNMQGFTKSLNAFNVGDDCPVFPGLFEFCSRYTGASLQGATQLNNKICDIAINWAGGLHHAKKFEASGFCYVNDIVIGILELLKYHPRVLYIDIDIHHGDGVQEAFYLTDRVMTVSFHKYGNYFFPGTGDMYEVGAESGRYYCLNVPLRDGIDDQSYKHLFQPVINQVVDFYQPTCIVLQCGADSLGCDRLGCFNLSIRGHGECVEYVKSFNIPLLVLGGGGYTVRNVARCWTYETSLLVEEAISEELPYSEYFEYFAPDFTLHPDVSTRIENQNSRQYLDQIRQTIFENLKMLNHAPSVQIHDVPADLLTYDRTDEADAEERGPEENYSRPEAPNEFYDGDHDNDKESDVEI

SMILES: CCCN(CCCCOCCOCCOCCOCCOCC(=O)N[C@@H](C(=O)N1C[C@@H](O)C[C@@H]1C(=O)NCc1ccc(-c2scnc2C)cc1)C(C)(C)C)C[C@@H](C)NC(=O)c1ccc(-c2noc(C(F)(F)F)n2)cc1 [Compound 12, (2R,4S)-1-((3R,26R)-26-(tert-Butyl)-3-methyl-1,24-dioxo-5-propyl-1-(4-(5-trifluoromethyl-1,2,4-oxadiazol-3-yl)phenyl)-10,13,16,19,22-pentaoxa-2,5,25-triazaheptacosan-27-oyl)-4-hydroxy-N-(4-(4-methylthiazol-5-yl)benzyl)pyrrolidine-2-carboxamide]
HDAC4 degradation at 10 μM by immunoblot (HDAC4 [2]): did not induce HDAC4 degradation | IC50 (class I HDAC): > 5 µM

SMILES: O=C(CCCCCCC(=O)Nc1ccccc1)NO [SAHA, suberoylanilide hydroxamic acid]
level of HDAC4 protein in the cortex and brain stem (HDAC4 [4]): reduction in the level of HDAC4 protein | aggregate load in the same brain regions (aggregate load): decrease in aggregate load

Continued, in another order:

HDAC4 degradation in the presence of 1 μM proteasome inhibitors MG132 or carfilzomib (HDAC4 [1]): HDAC4 degradation was prevented | hook effect (HDAC4 [2]): hook effect was observed | IC50 (class I HDAC): > 5 µM | higher inhibition of HDAC5, HDAC7, and HDAC9 compared to HDAC4 (HDAC4 [3]): 3- to 4 fold
SMILES: Cc1ncsc1-c1ccc(CNC(=O)[C@@H]2C[C@@H](O)CN2C(=O)[C@@H](NC(=O)COCCOCCOCCOCCOCC(F)(F)c2cnc(-c3ccc(C(C(=O)NO)c4ccccc4F)cc3)nc2)C(C)(C)C)cc1 (stereo partly drawn) [Compound 7, (2S,4R)-1-((2S)-2-(tert-Butyl)-20,20-difluoro-20-(2-(4-(1-(2-fluorophenyl)-2-(hydroxyamino)-2-oxoethyl)phenyl)pyrimidin-5-yl)-4-oxo-6,9,12,15,18-pentaoxa-3-azaicosan-1-oyl)-4-hydroxy-N-(4-(4-methylthiazol-5-yl)benzyl)pyrrolidine-2-carboxamide]
degradation of HDAC3 by western blot (HDAC3): No concentration-dependent reduction in immunoreactivity | degradation of HDAC1 by western blot (HDAC1): neither compound demonstrated degradation | degradation of HDAC9 by western blot (HDAC9): neither compound demonstrated degradation | degradation of HDAC7 by western blot (HDAC7): neither compound demonstrated degradation | degradation of HDAC5 by western blot (HDAC5): neither compound demonstrated degradation

HDAC4 degradation at 10 μM by immunoblot (HDAC4 [2]): did not induce HDAC4 degradation | IC50 (class I HDAC): > 5 µM
SMILES: Cc1ncsc1-c1ccc(CNC(=O)[C@@H]2C[C@H](O)CN2C(=O)[C@@H](NC(=O)COCCOCCOCCOCCOCC(F)(F)c2cnc(-c3ccc(C(C(=O)NO)c4ccccc4F)cc3)nc2)C(C)(C)C)cc1 (stereo partly drawn) [Compound 8, (2S,4S)-1-((2S)-2-(tert-Butyl)-20,20-difluoro-20-(2-(4-(1-(2-fluorophenyl)-2-(hydroxyamino)-2-oxoethyl)phenyl)pyrimidin-5-yl)-4-oxo-6,9,12,15,18-pentaoxa-3-azaicosanoyl)-4-hydroxy-N-(4-(4-methylthiazol-5-yl)benzyl)pyrrolidine-2-carboxamide]

HDAC4 degradation in the presence of 1 μM proteasome inhibitors MG132 or carfilzomib (HDAC4 [1]): same effect was observed | hook effect (HDAC4 [2]): hook effect was not observed | IC50 (class I HDAC): > 5 µM
SMILES: CCCN(CCCCOCCOCCOCCOCCOCC(=O)N[C@H](C(=O)N1C[C@H](O)C[C@H]1C(=O)NCc1ccc(-c2scnc2C)cc1)C(C)(C)C)C[C@@H](C)NC(=O)c1ccc(-c2noc(C(F)(F)F)n2)cc1 [Compound 11, (2S,4R)-1-((3R,26S)-26-(tert-Butyl)-3-methyl-1,24-dioxo-5-propyl-1-(4-(5-trifluoromethyl-1,2,4-oxadiazol-3-yl)phenyl)-10,13,16,19,22-pentaoxa-2,5,25-triazaheptacosan-27-oyl)-4-hydroxy-N-(4-(4-methylthiazol-5-yl)benzyl)pyrrolidine-2-carboxamide]
degradation of HDAC3 by western blot (HDAC3): showed HDAC3 degradation at the highest dose of 10 μM | degradation of HDAC1 by western blot (HDAC1): neither compound demonstrated degradation | degradation of HDAC9 by western blot (HDAC9): neither compound demonstrated degradation | degradation of HDAC7 by western blot (HDAC7): neither compound demonstrated degradation | degradation of HDAC5 by western blot (HDAC5): neither compound demonstrated degradation
